# Earlier results in patent US20020160058A1, “Antialopecia agent” (priority 1996, published 2002).
# Test system: alopecia induced by adriamycin
# Details: reported
substance,measurement,setting,value
tocopherol,effect on alopecia induced by adriamycin,oral administration,preventive effect
same,effect on alopecia induced by the combined use of adriamycin with other anticancer agents,,no effect
